Reference: ChEMBL document CHEMBL2417411, “Design and synthesis of novel 2'-hydroxy group substituted 2-pyridone derivatives as anticancer agents” (Eur J Med Chem, 2013)
pIC50: −log10 of the molar value.

Tests used:
MDA-MB-231 = assay: cells; conditions: Homo sapiens, MDA-MB-231, 48 h
Description: Cytotoxicity against human MDA-MB-231 cells after 48 hrs by MTT assay

HeLa [1] = assay: cells; conditions: Homo sapiens, 48 h
Description: Cytotoxicity against human HeLa cells after 48 hrs by MTT assay

SW480 [2] = assay: cells; conditions: Homo sapiens, SW480, 48 h
Description: Cytotoxicity against human SW480 cells after 48 hrs by MTT assay

A549 [3] = assay: cells; conditions: Homo sapiens, A549, 48 h
Description: Cytotoxicity against human A549 cells after 48 hrs by MTT assay

physchem = conditions: octanol/water
Description: Lipophilicity, log P of the compound

SGC-7901 = assay: cells; conditions: Homo sapiens, SGC-7901, 48 h
Description: Cytotoxicity against human SGC7901 cells after 48 hrs by MTT assay

cells = conditions: Homo sapiens, QGY7701, 48 h
Description: Cytotoxicity against human QGY7701 cells after 48 hrs by MTT assay

SW480 [4] = assay: Ratio of 5-fluorouracil IC50 to compound IC50 for human SW480 cells after 48 hrs by MTT assay; type: functional
HeLa [5] = assay: Ratio of 5-fluorouracil IC50 to compound IC50 for human HeLa cells after 48 hrs by MTT assay; type: functional
A549 [6] = assay: Ratio of 5-fluorouracil IC50 to compound IC50 for human A549 cells after 48 hrs by MTT assay; type: functional

Structure (SMILES)	pIC50 (MDA-MB-231)	pIC50 (HeLa [1])	pIC50 (SW480 [2])	pIC50 (A549 [3])	logP (physchem)	pIC50 (SGC-7901)	pIC50 (cells)	Ratio IC50 (SW480 [4])	Ratio IC50 (HeLa [5])	Ratio IC50 (A549 [6])
COc1ccc(C(=O)c2ccc(=O)n(-c3ccccc3C)c2)c(OCc2cn(Cc3ccc(Cl)cc3Cl)nn2)c1	5.92	5.45	5.65	5.59	4.23	6.39	5.19	–	–	–
COc1ccc(C(=O)c2ccc(=O)n(-c3ccccc3C)c2)c(OCc2cn(Cc3cccc(Cl)c3)nn2)c1	6.42	5.43	5.86	5.82	4.05	< 4.52	< 4.52	–	–	–
COc1ccc(C(=O)c2ccc(=O)n(-c3ccccc3C)c2)c(OCc2cn(Cc3ccc(Cl)cc3)nn2)c1	6.49	6.27	6.68	6.07	4.05	5.96	< 4.52	74.8	30.6	6.5
COc1ccc(C(=O)c2ccc(=O)n(-c3ccccc3C)c2)c(OCc2cn(Cc3ccccc3F)nn2)c1	5.94	5.32	5.48	5.40	3.59	< 4.52	< 4.52	–	–	–
COc1ccc(C(=O)c2ccc(=O)n(-c3ccccc3C)c2)c(OCc2cn(Cc3cccc(F)c3)nn2)c1	5.91	5.24	5.65	5.51	3.59	< 4.52	< 4.52	–	–	–
COc1ccc(C(=O)c2ccc(=O)n(-c3ccccc3C)c2)c(OCc2cn(Cc3ccc(F)cc3)nn2)c1	5.84	5.07	5.63	6.32	3.59	6.72	5.26	–	–	–
COc1ccc(C(=O)c2ccc(=O)n(-c3ccccc3C)c2)c(OCc2cn(Cc3ccccc3C)nn2)c1	5.87	5.31	5.51	5.49	4.1	< 4.52	5.33	–	–	–
COc1ccc(C(=O)c2ccc(=O)n(-c3ccccc3C)c2)c(OCc2cn(Cc3cccc(C)c3)nn2)c1	6.68	5.49	5.61	5.49	4.1	< 4.52	5.20	–	–	–
COc1ccc(C(=O)c2ccc(=O)n(-c3ccccc3C)c2)c(OCc2cn(Cc3ccc(C)cc3)nn2)c1	6.31	6.42	6.32	6.21	4.1	5.26	< 4.52	–	–	–
COc1ccc(Cn2cc(COc3cc(OC)ccc3C(=O)c3ccc(=O)n(-c4ccccc4C)c3)nn2)cc1	6.23	6.00	< 4.52	5.81	3.79	5.89	< 4.52	–	–	–
COc1ccc(C(=O)C2=CC(c3ccccc3C)C(=O)C=C2)c(OCc2cn(Cc3ccc(C(C)(C)C)cc3)nn2)c1 (stereo unspecified)	5.47	6.47	6.96	5.76	–	5.45	5.47	142.7	48.5	–
COc1ccc(C(=O)c2ccc(=O)n(-c3ccccc3C)c2)c(OC(=O)c2ccc(C)cc2)c1	6.27	5.49	5.64	5.49	4.32	5.40	< 4.52	–	–	–
CCCCC(CC)C(=O)Oc1cc(OC)ccc1C(=O)c1ccc(=O)n(-c2ccccc2C)c1 (stereo unspecified)	6.43	5.64	5.47	5.53	5.04	5.83	< 4.52	–	–	–
COc1ccc(C(=O)c2ccc(=O)n(-c3ccccc3C)c2)c(OC(=O)c2ccc(Cl)cc2)c1	5.74	5.81	5.88	5.28	4.27	5.24	< 4.52	–	–	–
COc1ccc(C(=O)c2ccc(=O)n(-c3ccccc3C)c2)c(OC(=O)c2ccc(F)cc2)c1	5.63	5.16	5.56	5.43	3.81	5.44	5.02	–	–	–
COc1ccc(C(=O)c2ccc(=O)n(-c3ccccc3C)c2)c(OC(C)=O)c1	< 4.52	< 4.52	< 4.52	< 4.52	2.7	5.21	< 4.52	–	–	–
COc1ccc(C(=O)c2ccc(=O)n(-c3ccccc3C)c2)c(OC(=O)c2ccccc2)c1	5.93	5.14	5.51	5.35	4.09	5.85	< 4.52	–	–	–

Structure (SMILES)	pIC50 (MDA-MB-231)	pIC50 (HeLa [1])	pIC50 (SW480 [2])	pIC50 (A549 [3])	logP (physchem)	pIC50 (SGC-7901)	pIC50 (cells)	Ratio IC50 (SW480 [4])	Ratio IC50 (HeLa [5])	Ratio IC50 (A549 [6])
COc1ccc(C(=O)c2ccc(=O)n(-c3ccccc3C)c2)c(OC(=O)Cc2ccc(Cl)cc2)c1	5.61	6.24	6.24	6.31	4.4	5.46	5.25	–	–	–
COc1ccc(C(=O)c2ccc(=O)n(-c3ccccc3C)c2)c(OC(=O)Cc2ccccc2Cl)c1	5.53	6.06	5.93	5.71	4.4	5.84	5.22	–	–	–
COc1ccc(C(=O)c2ccc(=O)n(-c3ccccc3C)c2)c(OC(=O)c2cc([N+](=O)[O-])cc([N+](=O)[O-])c2)c1	5.48	5.27	5.56	5.41	3.88	5.61	< 4.52	–	–	–
CCCOC(=O)Oc1cc(OC)ccc1C(=O)c1ccc(=O)n(-c2ccccc2C)c1	5.68	5.15	5.22	5.21	3.31	5.38	< 4.52	–	–	–
COc1ccc(C(=O)c2ccc(=O)n(-c3ccccc3C)c2)c(OC(=O)OCc2ccccc2)c1	6.12	6.34	6.28	6.23	4.23	6.16	5.36	30.2	35.9	9.5
CCOC(=O)Oc1cc(OC)ccc1C(=O)c1ccc(=O)n(-c2ccccc2C)c1	< 4.52	5.13	5.34	5.23	2.95	5.47	< 4.52	–	–	–
C#CCOc1cc(OC)ccc1C(=O)c1ccc(=O)n(-c2ccccc2C)c1	< 4.52	5.11	5.27	5.12	–	5.16	5.04	–	–	–
COc1ccc(C(=O)c2ccc(=O)n(-c3ccccc3C)c2)c(OCc2cn(Cc3ccccc3)nn2)c1	< 4.52	5.37	5.60	5.44	3.88	5.90	< 4.52	–	–	–
COc1ccc(C(=O)c2ccc(=O)n(-c3ccccc3C)c2)c(OCc2cn(Cc3ccccc3Br)nn2)c1	< 4.52	5.28	5.44	5.27	4.05	5.91	< 4.52	–	–	–
COc1ccc(C(=O)c2ccc(=O)n(-c3ccccc3C)c2)c(OCc2cn(Cc3cccc(Br)c3)nn2)c1	< 4.52	5.34	5.63	5.35	4.05	5.25	< 4.52	–	–	–
COc1ccc(C(=O)c2ccc(=O)n(-c3ccccc3C)c2)c(OCc2cn(Cc3ccc(Br)cc3)nn2)c1	5.61	5.37	< 4.52	5.26	4.23	5.64	5.30	–	–	–
COc1ccc(C(=O)c2ccc(=O)n(-c3ccccc3C)c2)c(OCc2cn(Cc3ccccc3C#N)nn2)c1	< 4.52	5.09	< 4.52	5.08	3.6	< 4.52	< 4.52	–	–	–
COc1ccc(C(=O)c2ccc(=O)n(-c3ccccc3C)c2)c(OCc2cn(Cc3ccc(C#N)cc3)nn2)c1	6.37	6.05	< 4.52	5.37	3.6	< 4.52	5.54	–	–	–
COc1ccc(C(=O)c2ccc(=O)n(-c3ccccc3C)c2)c(OCc2cn(Cc3cccc(O[N+](=O)[O-])c3)nn2)c1	5.86	5.51	5.35	5.44	3.77	6.26	5.52	–	–	–
COc1ccc(C(=O)c2ccc(=O)n(-c3ccccc3C)c2)c(OCc2cn(Cc3ccccc3Cl)nn2)c1	6.42	5.77	6.41	6.16	4.05	< 4.52	5.33	–	–	–
O=c1[nH]cc(F)c(=O)[nH]1 [FLUOROURACIL]	–	4.78	–	–	–	–	–	–	–	–
